Measurements as given in patent US20120220581A1, “IMIDAZO[1,2-b]PYRIDAZINE DERIVATIVES AND THEIR USE AS PDE10 INHIBITORS” (Janssen-Cilag, S.A., priority 2009, published 2012).

Key:
[1] = tested on: PCP-induced hyperlocomotion in rats; assay: PCP-induced hyperlocomotion in rats; assay type: in vivo; conditions: Rattus norvegicus
Experimental: Motor activity [horizontal activity (locomotion) and vertical activity (rearing)] was recorded in male Wiga rats (body weight: 175-275 g; housed overnight in groups of 7 rats) using microprocessor-based activity monitors (MED Associates; length×width×height: 43.2×43.2×41.5 cm) over a period of 30 min. The resolution of the system was set at 100 msec. Total distance was defined as the distance traveled, measured by changes in the number or location of interrupted xy-beams (located in two arrays of 32 infrared light beams (1.25 cm apart) perpendicular to each other in a horizontal plane 2.0 cm above the floor). Vertical activity was defined as the number of periods of continuous breaks reported by an infrared array of 32 light beams in a horizontal plane 13 cm above the floor. The intensity of the light within the activity meters (measured in the centre at floor level) ranged between 110 and 130 LUX.
Male Wiga rats (200 to 260 g) were pretreated with test compound or solvent (10 ml/kg, s.c.) and placed in individual cages. At a predefined interval thereafter (60 min.), the rats were challenged with PCP (1.25 mg/kg, i.v.) and motor activity was measured over a period of 30 min starting immediately after the PCP challenge. […]

[2] = tested on: SCH-23390-induced hypolocomotion in mice; assay: SCH-23390-induced hypolocomotion in mice; assay type: in vivo; conditions: Mus musculus
Experimental: SCH-23390 (0.08 mg/kg, i.v.)-induced hypolocomotion was evaluated over a 30-min period starting immediately after the SCH-23390 challenge in male NMRI mice pretreated 0.5 h earlier with test compound or solvent. Averaged activity in solvent-treated control mice was 1540±559 counts (mean±SD; n=103). Criterion for drug-induced reversal of the SCH-23390-induced hypolocomotion: total distance: >2500 counts (2.9% false positives in controls).

[3] = tested on: female hooded-Lister rats; assay: Object recognition test (NOR) after sub-chronic PCP; assay type: in vivo, rat; conditions: Day 1, 3 min retention trial, mean
[4] = biological target: other members of the PDE family (Homo sapiens, UniProt Q13946); assay: In vitro PDE selectivity assay (SPA), other members of the PDE family (protocols in Table A); assay type: biochemical; conditions: hPDE7A1; read-out: PDE 7A (expressed as pIC50) (converted)
Chain of other members of the PDE family (Homo sapiens, UniProt Q13946) (Q13946 whole entry, canonical isoform): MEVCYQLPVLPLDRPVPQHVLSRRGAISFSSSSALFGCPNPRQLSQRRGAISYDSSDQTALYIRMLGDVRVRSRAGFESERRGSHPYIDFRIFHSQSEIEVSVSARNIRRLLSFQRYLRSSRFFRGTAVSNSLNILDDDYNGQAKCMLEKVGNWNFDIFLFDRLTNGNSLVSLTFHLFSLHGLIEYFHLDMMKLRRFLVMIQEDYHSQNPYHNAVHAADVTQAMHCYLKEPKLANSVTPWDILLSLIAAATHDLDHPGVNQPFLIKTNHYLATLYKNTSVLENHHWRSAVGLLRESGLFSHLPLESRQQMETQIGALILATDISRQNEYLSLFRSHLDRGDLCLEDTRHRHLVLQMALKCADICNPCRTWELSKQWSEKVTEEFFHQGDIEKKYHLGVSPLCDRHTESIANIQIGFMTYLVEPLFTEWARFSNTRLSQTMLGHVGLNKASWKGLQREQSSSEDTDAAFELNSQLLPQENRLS
Outline: (§1)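 Inhibition of each PDE isoform was measured by scintillation proximity assay with ³H-cyclic nucleotide substrate, using incubation buffer, substrate concentration, incubation time and stop solution adapted per isoform. Compounds were tested in dose-response against 1% DMSO controls and enzyme-free blanks. IC50 came from a least-squares fit of blank-subtracted % of control versus concentration.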

[5] = biological target: other members of the PDE family (Homo sapiens, UniProt O00408); assay: as above; assay type: biochemical; conditions: hPDE2A; read-out: PDE 2A (expressed as pIC50) (converted)
Chain of other members of the PDE family (Homo sapiens, UniProt O00408) (O00408 whole entry): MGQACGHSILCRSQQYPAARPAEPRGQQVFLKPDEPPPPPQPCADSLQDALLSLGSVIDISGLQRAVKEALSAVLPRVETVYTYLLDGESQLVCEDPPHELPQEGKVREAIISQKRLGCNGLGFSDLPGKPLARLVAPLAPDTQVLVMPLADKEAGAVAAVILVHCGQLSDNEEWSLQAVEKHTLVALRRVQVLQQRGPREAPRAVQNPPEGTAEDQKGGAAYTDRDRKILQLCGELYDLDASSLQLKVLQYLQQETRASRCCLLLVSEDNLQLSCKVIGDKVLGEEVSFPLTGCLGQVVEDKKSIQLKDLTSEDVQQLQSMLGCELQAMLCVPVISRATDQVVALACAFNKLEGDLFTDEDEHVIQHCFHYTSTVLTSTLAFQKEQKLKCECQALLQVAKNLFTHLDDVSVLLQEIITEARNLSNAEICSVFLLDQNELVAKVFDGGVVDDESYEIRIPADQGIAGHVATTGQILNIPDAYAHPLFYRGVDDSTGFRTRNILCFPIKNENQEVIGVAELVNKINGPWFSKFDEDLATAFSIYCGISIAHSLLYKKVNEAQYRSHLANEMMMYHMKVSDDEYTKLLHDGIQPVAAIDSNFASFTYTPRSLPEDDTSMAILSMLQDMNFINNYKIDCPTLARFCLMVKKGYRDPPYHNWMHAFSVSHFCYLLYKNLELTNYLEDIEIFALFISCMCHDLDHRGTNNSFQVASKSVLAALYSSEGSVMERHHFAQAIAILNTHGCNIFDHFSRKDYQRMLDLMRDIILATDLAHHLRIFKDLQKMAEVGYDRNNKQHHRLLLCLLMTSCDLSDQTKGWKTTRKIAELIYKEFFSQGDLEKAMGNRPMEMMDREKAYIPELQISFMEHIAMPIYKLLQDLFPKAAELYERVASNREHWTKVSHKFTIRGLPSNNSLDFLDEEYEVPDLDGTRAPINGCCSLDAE
Outline: as §1

[6] = biological target: other members of the PDE family (Homo sapiens, UniProt Q9HCR9); assay: as above; assay type: biochemical; conditions: hPDE11A4; read-out: PDE 11A4 (expressed as pIC50) (converted)
Chain of other members of the PDE family (Homo sapiens, UniProt Q9HCR9) (Q9HCR9 whole entry): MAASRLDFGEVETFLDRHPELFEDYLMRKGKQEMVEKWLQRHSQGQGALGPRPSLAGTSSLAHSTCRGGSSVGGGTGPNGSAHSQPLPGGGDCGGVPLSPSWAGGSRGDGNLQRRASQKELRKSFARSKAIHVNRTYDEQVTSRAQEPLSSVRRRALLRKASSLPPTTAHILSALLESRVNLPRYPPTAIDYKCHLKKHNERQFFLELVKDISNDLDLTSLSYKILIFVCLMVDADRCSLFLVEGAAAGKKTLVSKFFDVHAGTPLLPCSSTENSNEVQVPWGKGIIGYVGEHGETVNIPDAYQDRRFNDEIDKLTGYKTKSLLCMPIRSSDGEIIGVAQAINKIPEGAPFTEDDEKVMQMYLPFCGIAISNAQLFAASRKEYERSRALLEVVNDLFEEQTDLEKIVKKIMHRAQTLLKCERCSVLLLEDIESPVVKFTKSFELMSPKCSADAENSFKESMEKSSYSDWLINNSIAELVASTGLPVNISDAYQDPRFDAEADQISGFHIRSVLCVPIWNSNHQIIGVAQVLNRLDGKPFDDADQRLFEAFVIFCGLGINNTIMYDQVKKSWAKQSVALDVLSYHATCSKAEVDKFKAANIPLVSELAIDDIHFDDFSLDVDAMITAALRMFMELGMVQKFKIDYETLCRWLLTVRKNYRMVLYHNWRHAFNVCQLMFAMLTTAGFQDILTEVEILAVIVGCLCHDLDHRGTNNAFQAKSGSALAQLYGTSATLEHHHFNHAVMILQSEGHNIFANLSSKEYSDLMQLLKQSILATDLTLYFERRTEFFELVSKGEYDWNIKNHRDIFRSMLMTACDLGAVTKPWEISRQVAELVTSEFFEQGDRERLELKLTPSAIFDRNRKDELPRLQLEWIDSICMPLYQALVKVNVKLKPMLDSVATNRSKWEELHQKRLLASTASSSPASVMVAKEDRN
Outline: as §1

[7] = biological target: other members of the PDE family (Homo sapiens, UniProt O76083); assay: as above; assay type: biochemical; conditions: hPDE9A; read-out: PDE 9A (expressed as pIC50) (converted)
Chain of other members of the PDE family (Homo sapiens, UniProt O76083) (O76083 whole entry): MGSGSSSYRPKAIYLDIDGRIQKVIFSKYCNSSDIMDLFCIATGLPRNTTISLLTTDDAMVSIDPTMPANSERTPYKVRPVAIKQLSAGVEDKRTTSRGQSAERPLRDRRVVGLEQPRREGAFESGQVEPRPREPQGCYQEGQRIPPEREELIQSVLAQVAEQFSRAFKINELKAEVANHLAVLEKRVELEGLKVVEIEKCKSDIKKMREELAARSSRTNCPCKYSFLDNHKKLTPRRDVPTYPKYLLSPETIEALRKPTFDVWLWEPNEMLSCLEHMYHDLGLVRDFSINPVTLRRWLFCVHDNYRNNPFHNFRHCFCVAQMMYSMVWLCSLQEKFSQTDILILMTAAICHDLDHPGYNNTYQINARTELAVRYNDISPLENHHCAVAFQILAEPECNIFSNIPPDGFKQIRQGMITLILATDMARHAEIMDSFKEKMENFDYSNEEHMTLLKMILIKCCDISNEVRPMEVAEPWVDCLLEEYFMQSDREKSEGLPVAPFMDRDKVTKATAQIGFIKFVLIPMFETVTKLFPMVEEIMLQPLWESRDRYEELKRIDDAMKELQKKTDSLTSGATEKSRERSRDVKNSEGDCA
Outline: as §1

[8] = biological target: other members of the PDE family (Homo sapiens, UniProt Q14432); assay: as above; assay type: biochemical; conditions: hPDE3A; read-out: PDE 3A (expressed as pIC50) (converted)
Chain of other members of the PDE family (Homo sapiens, UniProt Q14432) (Q14432 whole entry): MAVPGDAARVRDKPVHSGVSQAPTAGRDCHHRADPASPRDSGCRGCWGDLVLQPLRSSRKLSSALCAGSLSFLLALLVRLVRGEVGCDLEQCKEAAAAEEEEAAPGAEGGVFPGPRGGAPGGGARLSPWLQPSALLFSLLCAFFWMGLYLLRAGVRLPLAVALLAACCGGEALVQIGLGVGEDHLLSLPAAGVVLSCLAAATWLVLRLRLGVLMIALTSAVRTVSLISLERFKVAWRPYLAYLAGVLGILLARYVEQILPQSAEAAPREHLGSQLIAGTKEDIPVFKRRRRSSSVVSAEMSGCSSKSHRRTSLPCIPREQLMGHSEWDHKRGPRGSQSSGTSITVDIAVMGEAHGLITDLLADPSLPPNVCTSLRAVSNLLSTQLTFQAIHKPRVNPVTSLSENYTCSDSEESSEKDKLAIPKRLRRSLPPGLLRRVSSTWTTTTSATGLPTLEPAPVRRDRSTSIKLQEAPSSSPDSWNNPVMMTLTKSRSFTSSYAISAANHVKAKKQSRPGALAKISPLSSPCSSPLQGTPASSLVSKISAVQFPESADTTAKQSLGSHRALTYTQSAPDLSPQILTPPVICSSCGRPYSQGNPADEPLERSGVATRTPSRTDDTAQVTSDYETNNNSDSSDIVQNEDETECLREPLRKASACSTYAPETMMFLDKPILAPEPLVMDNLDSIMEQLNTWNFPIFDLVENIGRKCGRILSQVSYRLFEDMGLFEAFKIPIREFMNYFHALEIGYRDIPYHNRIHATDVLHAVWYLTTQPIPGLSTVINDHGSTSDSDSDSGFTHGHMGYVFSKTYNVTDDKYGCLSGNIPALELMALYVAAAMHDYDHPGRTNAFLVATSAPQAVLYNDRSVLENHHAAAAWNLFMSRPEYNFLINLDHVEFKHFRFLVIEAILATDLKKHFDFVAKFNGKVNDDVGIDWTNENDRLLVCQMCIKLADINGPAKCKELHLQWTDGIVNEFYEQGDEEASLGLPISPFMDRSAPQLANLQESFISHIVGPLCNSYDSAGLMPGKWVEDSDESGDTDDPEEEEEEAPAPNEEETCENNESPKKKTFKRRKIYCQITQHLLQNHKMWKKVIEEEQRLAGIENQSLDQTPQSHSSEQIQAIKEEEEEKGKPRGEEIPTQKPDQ
Outline: as §1

| SMILES | ED50 [1] | ED50 [2] | T2(A) exploration time of familiar object, retention trial ([3]; PCP + 0.3 mg/kg p.o.) | T2(B) exploration time of novel object, retention trial ([3]; PCP + 0.3 mg/kg p.o.) | T2(A) exploration time of familiar object, retention trial ([3]; PCP + 1 mg/kg p.o.) | T2(B) exploration time of novel object, retention trial ([3]; PCP + 1 mg/kg p.o.) | IC50 [4] | IC50 [5] | IC50 [6] | IC50 [7] | IC50 [8] |
| --- | --- | --- | --- | --- | --- | --- | --- | --- | --- | --- | --- |
| COCCc1ccc(-c2c(C)nc3c(N4CCOCC4)ccnn23)cn1 [compound 1, 3-[6-(2-methoxyethyl)-3-pyridinyl]-2-methyl-8-(4-morpholinyl)-imidazo[1,2-b]pyridazine] | 2 mg/kg | 7.1 mg/kg | 11.8 s | 17.6 s | 10.7 s | 22.3 s | 69.2 µM | 39.8 µM | 74.1 µM | > 100 µM | 97.7 µM |
| COCCOc1ccc(-c2c(C)nc3c(-c4ccncc4)ccnn23)cn1 [compound 21, 3-[6-(2-methoxyethoxy)-3-pyridinyl]-2-methyl-8-(4-pyridinyl)-imidazo[1,2-b]pyridazine] | 6.1 mg/kg | 5 mg/kg |  |  |  |  | > 50.1 µM | 47.9 µM | > 50.1 µM | > 50.1 µM | > 50.1 µM |
